Test system: STZ-induced type 2 diabetic model rats
Assay: Drug potency on STZ-induced type 2 diabetic model rats (fasting blood glucose)
Type: in vivo
Procedure: The extract from Example 13 was trialed for its drug potency on STZ-induced type 2 diabetic model rats in Center for Drug Safety Evaluation, Shanghai University of Traditional Chinese Medicine.
FYGL was orally administered for various groups as: type 2 diabetes control group with saline 20 mL/kg; type 2 diabetes group with low dose of FYGL 50 mg/kg; type 2 diabetes group with high dose of FYGL 150 mg/kg; metformin group with metformin 200 mg/kg; rosiglitazone group with rosiglitazone 3 mg/kg. Numbers of rats in each group are 10.
The symbol # indicates significant difference of the fasting blood glucose level with p<0.05 and ## indicates very significant difference with p<0.01, referred to that of type 2 diabetes control group.

| SMILES | fasting blood glucose (10 days, metformin 200 mg/kg) | fasting blood glucose (20 days, metformin 200 mg/kg) | fasting blood glucose (30 days, metformin 200 mg/kg) | fasting blood glucose (10 days, rosiglitazone 3 mg/kg) | fasting blood glucose (20 days, rosiglitazone 3 mg/kg) | fasting blood glucose (30 days, rosiglitazone 3 mg/kg) |
| --- | --- | --- | --- | --- | --- | --- |
| CN(C)C(=N)N=C(N)N [Metformin, metformin] | 14 ± 4(#) mM | 18 ± 5(#) mM | 13 ± 2 (##) mM |  |  |  |
| CN(CCOc1ccc(CC2SC(=O)NC2=O)cc1)c1ccccn1 (stereo not drawn) [rosiglitazone] |  |  |  | 14 ± 5(#) mM | 14 ± 4(#) mM | 12 ± 3 (##) mM |

— patent US20130136766A1, “EFFECTIVE FRACTION FROM THE FRUITING BODIES OF GANODERMA LUCIDUM, EXTRACTION METHOD, USE AND PREPARATION THEREOF” (Shanghai University of Traditional Chinese Medicine, priority 2010, published 2013)
